From PubChem BioAssay AID248 (DTP/NCI, 2004)
Toxic doses and inconclusive results are not listed.

Test system: L1210 leukemia ip in BDF1 mice, survival T/C
Test: NCI In Vivo Anticancer Drug Screen. Data for tumor model L1210 Leukemia (intraperitoneal) in B6D2F1 (BDF1) mice
Details: endpoint: mean survival time, higher = longer survival
Procedure, shortened: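 Transplanted-tumor mice were given test agent; controls received vehicle only. Survival readings from the two groups were divided (treated over control).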

[1] = dose: 100.0 mg/kg/injection, schedule: Q01DX001 (ip), vehicle: saline
[2] = dose: 200.0 mg/kg/injection, schedule: Q01DX001 (ip), vehicle: saline
[3] = dose: 400.0 mg/kg/injection, schedule: Q01DX001 (ip), vehicle: saline

O=C(O)c1cc2oc3ccccc3c2cc1O
T/C (dose: 100.0 mg/kg/injection, schedule: Q01DX009 (ip), vehicle: Klucel (hydroxypropylcellulose) (HPC)): 94 % of control
T/C (dose: 100.0 mg/kg/injection, schedule: Q04DX003 (ip), vehicle: Klucel (hydroxypropylcellulose) (HPC)): 98 % of control
T/C (dose: 200.0 mg/kg/injection, schedule: Q01DX009 (ip), vehicle: Klucel (hydroxypropylcellulose) (HPC)): 100 % of control
T/C (dose: 200.0 mg/kg/injection, schedule: Q04DX003 (ip), vehicle: Klucel (hydroxypropylcellulose) (HPC)): 95 % of control
T/C (dose: 400.0 mg/kg/injection, schedule: Q04DX003 (ip), vehicle: Klucel (hydroxypropylcellulose) (HPC)): 93 % of control

NC(=O)C(O)C(O)C(O)C(O)CCl (configuration not stated)
T/C (dose: 50.0 mg/kg/injection, schedule: Q04DX002 (ip), vehicle: saline with Tween-80): 96 % of control
T/C (dose: 100.0 mg/kg/injection, schedule: Q04DX002 (ip), vehicle: saline with Tween-80): 93 % of control
T/C (dose: 200.0 mg/kg/injection, schedule: Q04DX002 (ip), vehicle: saline with Tween-80): 98 % of control
T/C (dose: 400.0 mg/kg/injection, schedule: Q04DX002 (ip), vehicle: saline with Tween-80): 96 % of control

CN(C)c1ccc(/C=C2/CCCC/C2=N/O)cc1
T/C (dose: 100.0 mg/kg/injection, schedule: Q01DX009 (ip), vehicle: saline with Tween-80): 98 % of control
T/C (dose: 200.0 mg/kg/injection, schedule: Q01DX009 (ip), vehicle: saline with Tween-80): 92 % of control
T/C (dose: 400.0 mg/kg/injection, schedule: Q01DX009 (ip), vehicle: saline with Tween-80): 88 % of control

C#CC(O)(c1ccccc1)c1ccc(N(C)C)cc1 (configuration not stated)
T/C (dose: 100.0 mg/kg/injection, schedule: Q04DX003 (ip), vehicle: saline with Tween-80): 98 % of control
T/C (dose: 200.0 mg/kg/injection, schedule: Q04DX003 (ip), vehicle: saline with Tween-80): 100 % of control
T/C (dose: 400.0 mg/kg/injection, schedule: Q04DX003 (ip), vehicle: saline with Tween-80): 89 % of control

CC(=O)Nc1ccc(C(=O)NNC2=C(NNC(=O)c3ccc(NC(C)=O)cc3)C(=O)c3ccccc3C2=O)cc1
T/C (dose: 75.0 mg/kg/injection, schedule: Q04DX003 (ip), vehicle: saline): 100 % of control
T/C (dose: 150.0 mg/kg/injection, schedule: Q04DX003 (ip), vehicle: saline): 91 % of control
T/C (dose: 300.0 mg/kg/injection, schedule: Q04DX003 (ip), vehicle: saline): 91 % of control

CC(=O)Oc1ccc([N+](=O)[O-])cc1C(OC(C)=O)OC(C)=O
T/C (dose: 55.0 mg/kg/injection, schedule: Q01DX Z (ip), vehicle: methylcellulose (MC)): 90 % of control
T/C (dose: 83.0 mg/kg/injection, schedule: Q01DX Z (ip), vehicle: methylcellulose (MC)): 96 % of control
T/C (dose: 125.0 mg/kg/injection, schedule: Q01DX Z (ip), vehicle: methylcellulose (MC)): 93 % of control

CC1=CC(=O)C2=C(C)CCC3C(C)C(=O)OC3C12 (configuration not stated)
T/C (dose: 200.0 mg/kg/injection, schedule: Q01DX001 (ip), vehicle: saline with Tween-80): 98 % of control
T/C (dose: 400.0 mg/kg/injection, schedule: Q01DX001 (ip), vehicle: saline with Tween-80): 162 % of control

COc1cc(Cl)ccc1NC(=O)Oc1ccc(C(=O)OCc2ccccc2)cc1
T/C (dose: 100.0 mg/kg/injection, schedule: Q01DX009 (ip), vehicle: saline): 103 % of control
T/C (dose: 200.0 mg/kg/injection, schedule: Q01DX009 (ip), vehicle: saline): 97 % of control
T/C (dose: 400.0 mg/kg/injection, schedule: Q01DX009 (ip), vehicle: saline): 111 % of control

O=C(OCCOc1ccccc1)c1ccc([N+](=O)[O-])cc1
T/C [1]: 100 % of control
T/C [2]: 98 % of control
T/C [3]: 116 % of control

Cc1cccc(NC(=O)Nc2ccc(Cl)cc2)c1C
T/C (dose: 100.0 mg/kg/injection, schedule: Q01DX009 (ip), vehicle: gum acacia): 100 % of control
T/C (dose: 100.0 mg/kg/injection, schedule: Q04DX003 (ip), vehicle: gum acacia): 95 % of control
T/C (dose: 200.0 mg/kg/injection, schedule: Q01DX009 (ip), vehicle: gum acacia): 100 % of control
T/C (dose: 200.0 mg/kg/injection, schedule: Q04DX003 (ip), vehicle: gum acacia): 95 % of control
T/C (dose: 400.0 mg/kg/injection, schedule: Q01DX009 (ip), vehicle: gum acacia): 92 % of control
T/C (dose: 400.0 mg/kg/injection, schedule: Q04DX003 (ip), vehicle: gum acacia): 97 % of control

Nc1c(Br)cc2c([nH]c(=O)c3cc(Br)ccc32)c1Br
T/C (dose: 100.0 mg/kg/injection, schedule: Q01DX001 (ip), vehicle: carboxymethylcellulose (CMC)): 101 % of control
T/C (dose: 200.0 mg/kg/injection, schedule: Q01DX001 (ip), vehicle: carboxymethylcellulose (CMC)): 104 % of control
T/C (dose: 400.0 mg/kg/injection, schedule: Q01DX001 (ip), vehicle: carboxymethylcellulose (CMC)): 106 % of control

Cc1cc2c(cc1C)N(C(=O)CN1CCOCC1)CC(=O)N2
T/C (dose: 50.0 mg/kg/injection, schedule: Q01DX009 (ip), vehicle: acetone): 95 % of control
T/C (dose: 100.0 mg/kg/injection, schedule: Q01DX009 (ip), vehicle: acetone): 88 % of control
T/C (dose: 100.0 mg/kg/injection, schedule: Q04DX003 (ip), vehicle: acetone): 98 % of control
T/C (dose: 200.0 mg/kg/injection, schedule: Q01DX009 (ip), vehicle: acetone): 95 % of control
T/C (dose: 200.0 mg/kg/injection, schedule: Q04DX003 (ip), vehicle: acetone): 97 % of control
T/C (dose: 400.0 mg/kg/injection, schedule: Q04DX003 (ip), vehicle: acetone): 92 % of control

O=C(Nc1ccc(S(=O)(=O)F)cc1)c1cccc([N+](=O)[O-])c1
T/C [1]: 101 % of control
T/C [2]: 100 % of control
T/C [3]: 97 % of control
